Active and inactive are the calls of the source. The calls are words filed in the database; no cut-off is given here.
Key:
[1] = Kinetic solubility of compound at pH 6.5 by nephelometry; assay type: physicochemical; conditions: buffer, read-out: Kinetic_solubility
[2] = Half life in mouse liver microsomes in presence of NADPH by UPLC-MS analysis; assay type: ADME, Microsome
[3] = Protein binding in rat plasma measured after 6 hrs by LC-MS analysis based equilibrium dialysis method; assay type: ADME, cell-free; conditions: read-out: PPB (converted)
Cytochrome P450 2C9 = Cytochrome P450 2C9 (Homo sapiens, UniProt P11712); assay: Inhibition of CYP2C9 in human liver microsomes assessed as reduction in […] activity by . high-pressure liquid chromatography-tandem mass spectrometry; assay type: ADME
Cytochrome P450 3A4 = Cytochrome P450 3A4 (Homo sapiens, UniProt P08684); assay: Inhibition of CYP3A4 in human liver microsomes assessed as reduction in midazolam 1-hydroxylase activity by . high-pressure liquid chromatography-tandem mass spectrometry; assay type: ADME
[4] = Drug metabolism in human liver microsomes assessed as oxygenated metabolite M+16(2) formation by LC-MS/MS(CID) analysis; assay type: ADME, Microsome
[5] = Drug metabolism in rat liver microsomes assessed as 3'-propoxy-5,5'-bi(1,2,4-triazin)-3-ol formation by LC-MS/MS(CID) analysis; assay type: ADME, Microsome
[6] = Drug metabolism in mouse liver microsomes assessed as 3'-propoxy-5,5'-bi(1,2,4-triazin)-3-ol formation by LC-MS/MS(CID) analysis; assay type: ADME, Microsome
[7] = Drug metabolism in human liver microsomes assessed as formation of cleavage product M-69 by LC-MS/MS(CID) analysis; assay type: ADME, Microsome
[8] = Drug metabolism in mouse liver microsomes assessed as formation of cleavage product M-69 by LC-MS/MS(CID) analysis; assay type: ADME, Microsome
[9] = Drug metabolism in rat liver microsomes assessed as formation of cleavage product M-69 by LC-MS/MS(CID) analysis; assay type: ADME, Microsome
[10] = Metabolic stability of compound in Sprague-Dawley rat blood assessed as parent compound loss measured over 4 hrs by LC-MS analysis; assay type: ADME, tissue-based; conditions: whole blood, read-out: Drug degradation
[11] = Metabolic stability of compound in Swiss mouse blood assessed as parent compound loss measured over 4 hrs by LC-MS analysis; assay type: ADME, tissue-based; conditions: whole blood, read-out: Drug degradation
Plasmodium falciparum [12] = assay: Antiplasmodial activity against Plasmodium falciparum NF54 by 3H-incorporation growth inhibition assay; assay type: functional, organism-based
Plasmodium [13] = assay: Antimalarial activity against Plasmodium assessed as transmission blocking potential by measuring reduction in male gamete formation by dual gamete formation assay; assay type: functional, organism-based
Plasmodium [14] = assay: Antimalarial activity against Plasmodium assessed as transmission blocking potential by measuring reduction in female gamete formation by dual gamete formation assay; assay type: functional, organism-based
[15] = Apparent half life in Swiss mouse at 2.7 mg/kg, iv measured up to 24 hrs by LC-MS analysis; assay type: ADME, organism-based; conditions: in vivo, read-out: t1/2(app) (converted)
[16] = Cmax in Swiss mouse plasma at 2.8 mg/kg, po measured up to 24 hrs by LC-MS analysis; assay type: ADME, organism-based; parameters: route oral, dose 2.8 mg/kg, time <=24
[17] = Clearance in Swiss mouse plasma at 2.7 mg/kg, iv measured up to 24 hrs by LC-MS analysis; assay type: ADME, organism-based
[18] = Volume of distribution at steady state in Sprague-Dawley rat plasma at 3 mg/kg, iv measured up to 24 hrs by LC-MS analysis; assay type: ADME, organism-based; conditions: read-out: Vdss
[19] = Apparent oral availability in Sprague-Dawley rat at 10 mg/kg measured up to 24 hrs by LC-MS analysis; assay type: ADME, organism-based; conditions: in vivo, read-out: Fapp
[20] = Drug metabolism in Sprague-Dawley rat urine assessed as oxygenated metabolite M+16(1) formation at 3 mg/kg, iv by high-resolution mass spectrometry; assay type: ADME, organism-based; conditions: in vivo
[21] = Drug metabolism in Sprague-Dawley rat urine assessed as oxygenated metabolite M+16(2) formation at 10 mg/kg, po by high-resolution mass spectrometry; assay type: ADME, organism-based; conditions: in vivo
[22] = Drug metabolism in Sprague-Dawley rat urine assessed as N-methyl-2-(3'-propoxy-5,5'-bi(1,2,4-triazin)-3-yloxy)ethanamine formation at 3 mg/kg, iv by high-resolution mass spectrometry; assay type: ADME, organism-based; conditions: in vivo
[23] = Drug metabolism in Sprague-Dawley rat feces assessed as oxygenated metabolite N-methyl-2-(3'-propoxy-5,5'-bi(1,2,4-triazin)-3-yloxy)ethanamine oxide formation at 3 mg/kg, iv by high-resolution mass spectrometry; assay type: ADME, organism-based; conditions: in vivo
[24] = Drug metabolism in Sprague-Dawley rat feces assessed as N-methyl-2-(3'-propoxy-5,5'-bi(1,2,4-triazin)-3-yloxy)ethanamine formation at 3 mg/kg, iv by high-resolution mass spectrometry; assay type: ADME, organism-based; conditions: in vivo
[25] = Drug metabolism in Sprague-Dawley rat feces assessed as M-32 metabolite formation at 10 mg/kg, po by high-resolution mass spectrometry; assay type: ADME, organism-based; conditions: in vivo
[26] = Drug metabolism in Sprague-Dawley rat feces assessed as M-32 metabolite formation at 3 mg/kg, iv by high-resolution mass spectrometry; assay type: ADME, organism-based; conditions: in vivo
[27] = Clearance in ABT-treated Sprague-Dawley rat blood at 3 mg/kg, iv by LC-MS analysis; assay type: ADME, organism-based
Plasmodium berghei = assay: Antiplasmodial activity against Plasmodium berghei ANKA infected in po dosed Swiss mouse administered at 2 hrs post infection and measured on day 4 by Peter's 4-day test; assay type: functional
[28] = Toxicity in Swiss mouse assessed as loss of mobility at 32 mg/kg/day administered for 4 days; assay type: organism-based; conditions: in vivo, 96 h, time 4 day
Plasmodium falciparum [29] = assay: Antiplasmodial activity against Plasmodium falciparum 3D70087/N9 infected in NOD-SCID 1L2Rgamma mouse assessed as reduction in parasitemia at 50 mg/kg, po administered for 4 days starting from day 3 post infection by Peter's 4-day test; assay type: functional, organism-based
[30] = Drug concentration in blood of NOD-SCID 1L2Rgamma mouse infected with Plasmodium falciparum 3D70087/N9 at 50 mg/kg, po measured at 24 hrs by LC-MS/MS analysis; assay type: ADME, organism-based; conditions: in vivo
[31] = Drug metabolism in mouse hepatocytes assessed as oxygenated metabolite M+16(1) formation by LC-MS/MS(CID) analysis; assay type: ADME, cell-based, Hepatocyte
[32] = Drug metabolism in rat hepatocytes assessed as oxygenated metabolite M+16(1) formation by LC-MS/MS(CID) analysis; assay type: ADME, cell-based, Hepatocyte
[33] = Drug metabolism in human hepatocytes assessed as oxygenated metabolite N-methyl-2-(3'-propoxy-5,5'-bi(1,2,4-triazin)-3-yloxy)ethanamine oxide formation by LC-MS/MS(CID) analysis; assay type: ADME, cell-based, Hepatocyte
[34] = Drug metabolism in mouse hepatocytes assessed as oxygenated metabolite N-methyl-2-(3'-propoxy-5,5'-bi(1,2,4-triazin)-3-yloxy)ethanamine oxide formation by LC-MS/MS(CID) analysis; assay type: ADME, cell-based, Hepatocyte
[35] = Drug metabolism in mouse hepatocytes assessed as N-methyl-2-(3'-propoxy-5,5'-bi(1,2,4-triazin)-3-yloxy)ethanamine formation by LC-MS/MS(CID) analysis; assay type: ADME, cell-based, Hepatocyte
[36] = Drug metabolism in human hepatocytes assessed as N-methyl-2-(3'-propoxy-5,5'-bi(1,2,4-triazin)-3-yloxy)ethanamine formation by LC-MS/MS(CID) analysis; assay type: ADME, cell-based, Hepatocyte
Plasmodium falciparum [37] = assay: Antimalarial activity against Plasmodium falciparum 3D7 infected in human red blood cells at 40 uM after 72 hrs by DAPI-staining based assay relative to control; assay type: functional

Sequence of Cytochrome P450 3A4 (P08684 whole entry): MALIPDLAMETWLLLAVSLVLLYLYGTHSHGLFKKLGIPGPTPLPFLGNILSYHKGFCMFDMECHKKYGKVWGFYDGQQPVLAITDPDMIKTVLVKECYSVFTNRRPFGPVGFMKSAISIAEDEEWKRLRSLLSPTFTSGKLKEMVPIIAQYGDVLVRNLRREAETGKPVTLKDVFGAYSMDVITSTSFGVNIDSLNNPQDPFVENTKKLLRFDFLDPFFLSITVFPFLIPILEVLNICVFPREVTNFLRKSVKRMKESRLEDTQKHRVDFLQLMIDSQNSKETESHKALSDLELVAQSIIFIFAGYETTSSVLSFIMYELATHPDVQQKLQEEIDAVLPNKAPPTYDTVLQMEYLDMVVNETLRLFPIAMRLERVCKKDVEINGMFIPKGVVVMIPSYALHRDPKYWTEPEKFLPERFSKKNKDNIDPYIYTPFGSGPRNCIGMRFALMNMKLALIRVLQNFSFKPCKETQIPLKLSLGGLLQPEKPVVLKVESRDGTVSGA
Sequence of Cytochrome P450 2C9 (P11712 whole entry): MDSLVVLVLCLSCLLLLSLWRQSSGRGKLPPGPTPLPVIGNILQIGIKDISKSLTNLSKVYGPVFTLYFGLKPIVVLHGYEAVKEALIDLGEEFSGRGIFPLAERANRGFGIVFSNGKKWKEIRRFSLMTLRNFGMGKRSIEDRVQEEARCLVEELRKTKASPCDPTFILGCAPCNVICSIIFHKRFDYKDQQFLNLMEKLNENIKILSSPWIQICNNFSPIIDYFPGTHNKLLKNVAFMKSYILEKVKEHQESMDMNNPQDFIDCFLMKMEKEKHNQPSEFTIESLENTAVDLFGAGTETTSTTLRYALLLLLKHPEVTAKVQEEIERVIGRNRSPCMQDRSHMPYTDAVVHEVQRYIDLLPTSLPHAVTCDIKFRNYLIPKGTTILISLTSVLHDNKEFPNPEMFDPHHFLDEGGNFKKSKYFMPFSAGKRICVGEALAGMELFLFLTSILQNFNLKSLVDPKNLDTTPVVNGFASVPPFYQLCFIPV

Structure (SMILES): CCCOc1nncc(-c2cnnc(OCCN(C)C)n2)n1
- solubility kinetic [1]: > 100 µg/mL
- half-life [2]: 42 min
- fraction unbound at 6 h [3]: 0.78
- IC50 (Cytochrome P450 2C9): > 20000 nM
- IC50 (Cytochrome P450 3A4): > 20000 nM
- Drug metabolism [4]: Metabolite_Detected
- Drug metabolism [5]: Metabolite_Notdetected
- Drug metabolism [6]: Metabolite_Detected
- Drug metabolism [7]: Metabolite_Detected
- Drug metabolism [8]: Metabolite_Detected
- Drug metabolism [9]: Metabolite_Detected
- metabolised at 4 h [10]: 15%
- metabolised at 4 h [11]: 23%
- IC50 (Plasmodium falciparum [12]): 21 nM
- EC50 (Plasmodium [13]): 1200 nM
- EC50 (Plasmodium [14]): 2900 nM
- half-life [15]: 12 min
- Cmax [16]: 16.8 nM
- clearance [17]: 406 mL/min/kg
- Vd [18]: 2.8 L/kg
- bioavailability [19]: 5%
- Drug metabolism [20]: Metabolite_Detected
- Drug metabolism [21]: Metabolite_Detected
- Drug metabolism [22]: Metabolite_Detected
- Drug metabolism [23]: Metabolite_Detected
- Drug metabolism [24]: Metabolite_Detected
- Drug metabolism [25]: Metabolite_Detected
- Drug metabolism [26]: Metabolite_Detected
- clearance [27]: 232 mL/min/kg
- ED50 (Plasmodium berghei): 1.85 mg/kg/day
- ED90 (Plasmodium berghei): 4.1 mg/kg/day
- Activity [28]: Non-Toxic
- Activity (Plasmodium falciparum [29]): Active
- Drug uptake [30]: < 1e-05 mg/mL
- Drug metabolism [31]: Metabolite_Detected
- Drug metabolism [32]: Metabolite_Detected
- Drug metabolism [33]: Metabolite_Detected
- Drug metabolism [34]: Metabolite_Detected
- Drug metabolism [35]: Metabolite_Detected
- Drug metabolism [36]: Metabolite_Notdetected
- Activity (Plasmodium falciparum [37]): 100%
